Reference: US20160039825A1 (BIOGEN MA INC., priority 2013, published 2016)

Target: T1, Human ATX protein (Homo sapiens, UniProt Q13822)
T1 construct: made in house
Assay: Autotaxin (ATX) assay, FRET with FS-3 substrate
Assay type: biochemical
Settings: upper bound bins (no greater than 100, 250 or 500 nM); FS-3 2 μM, ATX 1.0 μg/mL
How it was run: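 Hydrolysis of the FRET substrate FS-3 (2 μM final) unquenches fluorescein, read at excitation 485 nm and emission 538 nm after 2 h at room temperature, protected from light. Purified human ATX (1.0 μg/mL) and compound were first incubated for 30 min in pH 7.4 Tris/salt buffer containing 1 mg/mL fatty acid-free BSA.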

Row | Compound | IC50 [nM]
1 | COC(=O)C1CCN(C(=O)c2cc3n(n2)CCN(C(=O)OCc2cc(C(F)(F)F)cc(C(F)(F)F)c2)C3)CC1 [Example 494] | ≤ 100
2 | CN1CCN(C(=O)c2cc3n(n2)CCN(C(=O)OCc2cc(Cl)cc(C(F)(F)F)c2)C3)C(C)(C)C1 [Example 495] | ≤ 100
3 | O=C(OCc1cc(C(F)(F)F)cc(C(F)(F)F)c1)N1CCn2nc(-c3cccnc3)cc2C1 [Example 496, 3,5-bis(trifluoromethyl)benzyl 2-(pyridin-3-yl)-6,7-dihydropyrazolo[1,5-a]pyrazine-5(4H)-carboxylate] | ≤ 100
4 | CC(C)(C)OC(=O)N1CC=C(c2cc3n(n2)CCN(C(=O)OCc2cc(C(F)(F)F)cc(C(F)(F)F)c2)C3)CC1 [Example 497] | ≤ 100
5 | CC(C)(C)OC(=O)N1CCC=C(c2cc3n(n2)CCN(C(=O)OCc2cc(C(F)(F)F)cc(C(F)(F)F)c2)C3)C1 [Example 498] | ≤ 100
6 | O=C(OCc1cc(C(F)(F)F)cc(C(F)(F)F)c1)N1CCn2nc(-c3ccncc3)cc2C1 [Example 499] | ≤ 100
7 | O=C(NC1CC(O)C1)c1cc2n(n1)CCCN(C(=O)OCc1cc(C(F)(F)F)cc(C(F)(F)F)c1)C2 (stereo not drawn) [Example 504] | ≤ 100
8 | O=C(NC1CCOCC1)c1cc2n(n1)CCCN(C(=O)OCc1cc(C(F)(F)F)cc(C(F)(F)F)c1)C2 [Example 506] | ≤ 100
9 | O=C(O)c1nn2c(c1F)CN(C(=O)OCc1cc(C(F)(F)F)cc(C(F)(F)F)c1)CCC2 [Example 507, 5-(((3,5-bis(Trifluoromethyl)benzyl)oxy)carbonyl)-3-fluoro-5,6,7,8-tetrahydro-4H-pyrazolo[1,5-a][1,4]diazepine-2-carboxylic acid] | ≤ 100
10 | CC(NC1CC1)c1cc2n(n1)CCCN(C(=O)OCc1cc(C(F)(F)F)cc(C(F)(F)F)c1)C2 (stereo not drawn) [Example 508] | ≤ 100
11 | CC(NC1COC1)c1cc2n(n1)CCCN(C(=O)OCc1cc(C(F)(F)F)cc(C(F)(F)F)c1)C2 (stereo not drawn) [Example 509] | ≤ 250
12 | O=C(OCc1cc(C(F)(F)F)cc(C(F)(F)F)c1)N1CCCn2nc(CN3CCC(F)CC3)cc2C1 [Example 510] | ≤ 100
13 | O=C(OCc1cc(C(F)(F)F)cc(C(F)(F)F)c1)N1CCCn2nc(CNC3COC3)cc2C1 [Example 511] | ≤ 250
14 | CC(c1cc2n(n1)CCCN(C(=O)OCc1cc(C(F)(F)F)cc(C(F)(F)F)c1)C2)N1CCC(F)CC1 (stereo not drawn) [Example 512] | ≤ 100
15 | O=C(OCc1cc(C(F)(F)F)cc(C(F)(F)F)c1)N1CCCn2nc(CNC3CC3)cc2C1 [Example 513] | ≤ 250
16 | CN1CCN(C(=O)c2nn3c(c2F)CN(C(=O)OCc2cc(Cl)cc(C(F)(F)F)c2)CCC3)CC1 [Example 515] | ≤ 100
17 | O=C(OCc1cc(C(F)(F)F)cc(C(F)(F)F)c1)N1CCn2nc(C3=CCNCC3)cc2C1 [Example 516] | ≤ 100

Next, values leading:

Row | IC50 [nM] | Compound
18 | ≤ 100 | CC1CCN(C(=O)c2cc3n(n2)CCN(C(=O)OCc2cc(C(F)(F)F)cc(C(F)(F)F)c2)C3)CC1 [Example 488]
19 | ≤ 100 | CN1CCN(C(=O)c2cc3n(n2)CCN(C(=O)OCc2cc(C(F)(F)F)cc(C(F)(F)F)c2)C3)CC1 [Example 489]
20 | ≤ 100 | O=C(OCc1cc(C(F)(F)F)cc(C(F)(F)F)c1)N1CCn2nc(C(=O)N3CCC(O)CC3)cc2C1 [Example 490]
21 | ≤ 100 | NC(=O)c1cc2n(n1)CCN(C(=O)OCc1cc(C(F)(F)F)cc(C(F)(F)F)c1)C2 [Example 491]
22 | ≤ 100 | O=C(NC1CCCCC1)c1cc2n(n1)CCN(C(=O)OCc1cc(C(F)(F)F)cc(C(F)(F)F)c1)C2 [Example 492]
23 | ≤ 100 | O=C(OCc1cc(C(F)(F)F)cc(C(F)(F)F)c1)N1CCn2nc(C(=O)N3CCCCC3)cc2C1 [Example 493]
24 | ≤ 100 | O=C(OCc1cc(C(F)(F)F)cc(C(F)(F)F)c1)N1CCn2nc(-c3cn[nH]c3)cc2C1 [Example 500]
25 | ≤ 100 | O=C(NCC1CC1)c1cc2n(n1)CCCN(C(=O)OCc1cc(C(F)(F)F)cc(C(F)(F)F)c1)C2 [Example 502]
26 | ≤ 100 | O=C(NC1CC1)c1cc2n(n1)CCCN(C(=O)OCc1cc(C(F)(F)F)cc(C(F)(F)F)c1)C2 [Example 503]
27 | ≤ 100 | O=C(NC1COC1)c1cc2n(n1)CCCN(C(=O)OCc1cc(C(F)(F)F)cc(C(F)(F)F)c1)C2 [Example 505]
